Measurements taken from patent US11566024B2 (CHANGZHOU QIANHONG BIOPHARMA CO., LTD, priority 2018, dated 2023).

Key:
[1] = Hygroscopicity (DVS); assay type: physicochemical; settings: for hygroscopicity class (in words) / hygroscopic weight gain: at 80% humidity; for hygroscopic weight gain: tartrate; for hygroscopicity (in words): DVS experiments on the Active Pharmaceutical Ingredients
[2] = Conversion experiments between the crystal forms; assay type: physicochemical; settings: conversion between Crystal Form A and Form B
[3] = Equilibrium solubility of crystal forms under simulated in vivo conditions; assay type: physicochemical; settings: simulated in vivo conditions (pH=2.0, 4.6, 6.8)
[4] = Preliminary stability tests (high temperature, high humidity, illumination); assay type: physicochemical; settings: high humidity, and illumination, versus free base and other salt forms
Text: However, unlike phosphates and the like, the above increase in solubility is not accompanied by a significant increase in hygroscopicity. […] The above and other advantages will be favorable for overcoming various challenges faced by the development of pharmaceutical products containing selective CDK 9 kinase inhibitors of Formula I.

[5] = physchem; settings: for solubility: 25 °C, thermodynamic from solid
Text: Perform scale-up experiments on the above six salts to determine solubilities of various salts in different pH buffers and deionized water, and compare with the free base.

Q: Which results are given for `CNc1nc(C)c(-c2nc(Nc3cccc(S(N)(=O)=O)c3)ncc2F)s1.O=C(O)C(O)C(O)C(=O)O` [Form A, 3-(5-fluoro-4-(4-methyl-2-(methylamino)thiazol-5-yl)pyrimidin-2-ylamino)-benzenesulfonamide tartrate]?
A: hygroscopicity class (in words) [1]: non-hygroscopic; hygroscopic weight gain [1]: 0.22%; crystal form stability (in words) [2]: more stable crystal form; equilibrium solubility (in words) [3]: greater than that of Form B

Q: With `CNc1nc(C)c(-c2nc(Nc3cccc(S(N)(=O)=O)c3)ncc2F)s1.O=P(O)(O)O` [Phosphate] as the compound, how does the “hygroscopicity (in words)” value [1] read?
A: highest hygroscopicity

Q: And the water absorbed ([1]; DVS, 60% RH)?
A: 11.71%

Q: Which results are given for `CNc1nc(C)c(-c2nc(Nc3cccc(S(N)(=O)=O)c3)ncc2F)s1.O=C(O)C(O)C(O)C(=O)O` [Form B, 3-(5-fluoro-4-(4-methyl-2-(methylamino)thiazol-5-yl)pyrimidin-2-ylamino)-benzenesulfonamide tartrate]?
A: hygroscopicity class (in words) [1]: non-hygroscopic; hygroscopic weight gain [1]: 0.11%

Q: Which “hygroscopicity (in words)” value [1] does the source give for `CNc1nc(C)c(-c2nc(Nc3cccc(S(N)(=O)=O)c3)ncc2F)s1` [LS007, 3-(5-fluoro-4-(4-methyl-2-(methylamino)thiazol-5-yl)pyrimidin-2-ylamino)-benzenesulfonamide] here?
A: very low hygroscopicity

Q: With `CNc1nc(C)c(-c2nc(Nc3cccc(S(N)(=O)=O)c3)ncc2F)s1.O=C(O)C(O)C(O)C(=O)O` [Tartrate, 3-(5-fluoro-4-(4-methyl-2-(methylamino)thiazol-5-yl)pyrimidin-2-ylamino)-benzenesulfonamide tartrate] as the compound, how does the “stability (in words)” value [4] read?
A: better stability

Q: And the “hygroscopicity (in words)” value [1]?
A: lowest hygroscopicity

Q: And the solubility ([5]; pH 2, aqueous buffer)?
A: 4300 µg/mL

Q: And the solubility ([5]; pH 4.5, aqueous buffer)?
A: 7.5 µg/mL

Q: And the solubility ([5]; pH 6.8, aqueous buffer)?
A: 3.7 µg/mL

Q: What about the solubility ([5]; water) of the same compound?
A: 418 µg/mL

Q: What about the “solubility compared to the raw materials (in words)” value ([5]; pH 2.0 buffer and deionized water, HPLC) of the same compound?
A: significantly increased
